Assay results reported in article PMC7003431, “Betulinic acid shows anticancer activity against equine melanoma cells and permeates isolated equine skin in vitro” (BMC Veterinary Research, 2020).

What was measured:
actinic keratoses = tested on: actinic keratoses; parameters: method as in PMID 18808378; conditions: 14 human patients; cited from earlier work
[1] = tested on: primary equine melanoma cells MelDuWi; assay: MTS cytotoxicity assay (CellTiter 96 AQueous One Solution); type: cell-based, horse; conditions: Equus caballus, mean (95% CI), 6–8 experiments
Method: (§1) The inhibitory effect of BA on cell proliferation was evaluated using a modified crystal violet staining (CVS) assay. In brief, cells were seeded into 96-well microtiter plates with a density of 5000 cells/well to avert confluence of the cells during the experimental period. Twenty-four hours later, the cells were treated with serial dilutions of BA dissolved in DMSO and medium at nine different concentrations ranging from 1 to 100 μmol/L. The highest concentration of DMSO solvent was 0.5% in 100 μmol/L, which had neither an impact on the cell proliferation rate nor on the cell survival rate (preliminary experiments and regular controls within the experiments; data not shown). Control cells were only treated with medium. The proportion of treated cells in relation to untreated controls was determined 5, 24, 48 and 96 h after the beginning of the drug exposure. The medium for 96-h experiments was renewed before cell treatment (24 h after inoculation). The medium-compound mix was discarded at the time points mentioned above and cells were fixed with 2% glutaraldehyde (Sigma-Aldrich) in PBS for 20 min. Glutaraldehyde was removed and cells were dyed for 30 min with 0.1% crystal violet (Roth GmbH, Karlsruhe, Germany) in deionized water. After washing with deionized water, the plates were air-dried. Subsequently, crystal violet was solubilized out of the cells by adding 2% Triton X-100 (Sigma-Aldrich, Steinheim, Germany) in deionized water. After 1 h of incubation, absorbance was measured at 570 nm using a 96-well microtiter plate reader (MRX microplate reader, Dynatech Laboratories, El Paso, US). Experiments were performed in six to eight biological replicates with two technical replicates for each combination of cell type, incubation time and pharmacologic compound concentration. The ratios of mean optical density of the duplicate to mean optical density of the associated controls were used for dose-response curves.
(§2) The cytotoxicity of BA was evaluated using the CellTiter 96® AQueous One Solution Cell Proliferation Assay (MTS) (Promega GmbH, Mannheim, Germany). Cells were seeded into 96-well microtiter plates with the appropriate cell densities to achieve confluence after 48 h (MelDuWi 30.000 cells/well; PriFi1, PriFi2, eRGO1 20.000 cells/well). After 48 h, these cells were treated in accordance with the CVS assay. Experiments were stopped at the same time points as the CVS assay. The medium for the 96-h experiments was renewed before treatment. The MTS was applied in accordance with the manufacturer’s instructions. After 1 h incubation, the plate absorbance was measured at 490 nm using a 96-well microtiter plate reader (MRX microplate reader, Dynatech Laboratories, El Paso, US). Experiments were performed in six to eight biological replicates with two technical replicates for each combination of pharmacologic compound, cell type, incubation time and concentration.
(§3) Technical duplicates with a coefficient of variation of more than 20% were excluded from the analysis of the cell assays. The pharmacodynamic model 108 of Phoenix® WinNonlin® software (version 8.1, Certara, USA) was used to determine half-maximal inhibitory concentrations (IC50 values). Further statistical analysis was performed with R 3.5.1 [60]. A generalized additive model was fitted for both MTS and CVS using the ‘mgcv’ package to estimate the effects of the BA concentration, cell line and duration of incubation on the ratio of the mean optical density of the duplicates from six to eight replicates to the mean optical density of the associated controls. The effect of concentration was modelled as a smoothed term interacting with the duration of incubation using a thin plate regression spline. The P-values were obtained by performing a Wald test for each parameter. Post-hoc comparisons for the cell line and duration of incubation were performed using the ‘multcomp’ package with single-step adjustment of the P-values. […]

[2] = tested on: primary equine dermal fibroblasts PriFi2; assay: as above; type: cell-based, horse; conditions: Equus caballus, Fibroblast, mean (95% CI), 6–8 experiments
Method: as §1, §2, §3

[3] = tested on: primary equine dermal fibroblasts PriFi1; assay: as above; type: cell-based, horse; conditions: Equus caballus, Fibroblast, mean (95% CI), 6–8 experiments
Method: as §1, §2, §3

[4] = tested on: primary equine melanoma cells eRGO1; assay: as above; type: cell-based, horse; conditions: Equus caballus, mean (95% CI), 6–8 experiments
Method: as §1, §2, §3

[5] = Franz-type diffusion cell penetration and permeation on isolated equine skin; type: in vitro ADME, horse; conditions: 24 h FDC
From the text: Skin samples from seven adult horses of different sex (three mares, two geldings, two unknown) and breed (including three Warmbloods, one Icelandic horse and one Welsh Cob pony, two unknown) were harvested at the Institute of Pathology, University of Veterinary Medicine Hannover, Foundation, Hannover, after euthanasia at the Clinic for Horses, University of Veterinary Medicine Hannover, Foundation, Hannover, for reasons unrelated to the present study. The horses’ ages ranged from 4 to 24 years, with a median of 13.5 years. Skin from the lateral thorax was dissected and stored at − 20 °C for up to 5 months.
“Basiscreme DAC” (pharmaceutical amphiphilic formulation as published in the German Drug Codex) with 1% BA and 20% medium-chain triglycerides was provided by Skinomics GmbH, Halle, Germany.
In order to investigate the penetration and permeation of 1% BA with 20% medium-chain triglycerides in “Basiscreme DAC” through equine skin, the skin samples were defrosted overnight at room temperature. The coat was clipped to a length of approximately 0.5 mm. The integrity of the skin samples was visually assessed. Skin slices of 800 μm (+/− 110 μm) thickness were obtained with an electrical dermatome (Zimmer, Eschbach, Germany). Franz-type diffusion cells (FDC) (PermeGear, Riegelsville, USA, and Gauer Glas, Püttlingen, Germany) with a diffusion area of 1.77 cm^2 and an acceptor chamber volume of approximately 12 mL were filled with PBS and 1% bovine serum albumin. The acceptor chamber content was constantly stirred with a magnetic stirrer at 500 rpm. Diffusion chambers were maintained at 34 °C to ensure a skin temperature of 32 ± 0.5 °C. Before use, equal hydration of the skin samples was obtained by 30 min immersion in PBS. After gently drying with a paper tissue, 20 mg of the drug formulation was carefully applied to the skin surface (stratum corneum) covering the complete diffusion area before mounting the skin pieces onto the FDC. The donor chamber and sampling tube were covered with parafilm.
After 24 h, the remaining donor formulation was removed from the skin with a dry cotton swab. Cotton swabs, acceptor medium and exposed areas of the skin samples, which were cut out with a scalpel blade, were stored at − 20 °C until further processing and analysis. In order to determine the amount of BA in different skin layers, frozen skin samples were fixed on tissue freezing medium (Leica Biosystems Nussloch GmbH, Nussloch, Germany) and placed in a cryostat (CryoStar™ NX70 Cryostat, Thermofisher, Darmstadt, Germany). From each skin sample slices were cut horizontally to the epidermis, starting with the stratum corneum side uppermost, and stored separately. […] After reaching a skin depth of 310 μm, slices were pooled at 5 × 20 μm until a depth of a maximum of 910 μm was reached. The blade was cleaned with tissues soaked in 70% ethanol (CG Chemikalien, Laatzen, Germany) between each cut. These cleaning tissues and skin samples were stored at − 20 °C until final analysis. An analytic high-performance liquid chromatography method was developed for BA quantification in the different skin layers, acceptor medium and cleaning utensils mentioned previously. Reverse phase analysis was performed using an Agilent 1100 system (Agilent, Waldbronn, Germany) on a Kinetex column (5 μm, C18, 100 Å, 250 × 4.6 mm; Phenomenex, Torrance, US) at 35 °C developing with acetonitrile:water (0.1% HCOOH) 4:1 (v/v) at 2.5 mL/min. The diode array detector was set at 200 nm.

[6] = tested on: primary equine melanoma cells MelDuWi; assay: Crystal violet staining (CVS) proliferation assay; type: cell-based, horse; conditions: Equus caballus, mean (95% CI), 6–8 experiments
Method: as §1
(§4) Technical duplicates with a coefficient of variation of more than 20% were excluded from the analysis of the cell assays. The pharmacodynamic model 108 of Phoenix® WinNonlin® software (version 8.1, Certara, USA) was used to determine half-maximal inhibitory concentrations (IC50 values). Further statistical analysis was performed with R 3.5.1 [60]. A generalized additive model was fitted for both MTS and CVS using the ‘mgcv’ package to estimate the effects of the BA concentration, cell line and duration of incubation on the ratio of the mean optical density of the duplicates from six to eight replicates to the mean optical density of the associated controls. The effect of concentration was modelled as a smoothed term interacting with the duration of incubation using a thin plate regression spline. The P-values were obtained by performing a Wald test for each parameter. Post-hoc comparisons for the cell line and duration of incubation were performed using the ‘multcomp’ package with single-step adjustment of the P-values. Plots were produced with ggplot2 [63]. Statistical significance was set at P < 0.05.

[7] = tested on: primary equine dermal fibroblasts PriFi2; assay: Crystal violet staining (CVS) proliferation assay; type: cell-based, horse; conditions: Equus caballus, Fibroblast, mean (95% CI), 6–8 experiments
Method: as §1, §4

[8] = tested on: primary equine dermal fibroblasts PriFi1; assay: Crystal violet staining (CVS) proliferation assay; type: cell-based, horse; conditions: Equus caballus, Fibroblast, mean (95% CI), 6–8 experiments
Method: as §1, §4

[9] = tested on: primary equine melanoma cells eRGO1; assay: Crystal violet staining (CVS) proliferation assay; type: cell-based, horse; conditions: Equus caballus, mean (95% CI), 6–8 experiments
Method: as §1, §4

[10] = tested on: primary equine melanoma cells compared to primary equine dermal fibroblasts; assay: Selectivity to tumor cells compared to normal cells (MTS and CVS assays); type: cell-based, horse; conditions: equine melanoma cells eRGO1, MelDuWi vs fibroblasts PriFi1, PriFi2
Method: The inhibitory effect of BA on cell proliferation was evaluated using a modified crystal violet staining (CVS) assay. In brief, cells were seeded into 96-well microtiter plates with a density of 5000 cells/well to avert confluence of the cells during the experimental period. Twenty-four hours later, the cells were treated with serial dilutions of BA dissolved in DMSO and medium at nine different concentrations ranging from 1 to 100 μmol/L. The highest concentration of DMSO solvent was 0.5% in 100 μmol/L, which had neither an impact on the cell proliferation rate nor on the cell survival rate (preliminary experiments and regular controls within the experiments; data not shown). Control cells were only treated with medium. The proportion of treated cells in relation to untreated controls was determined 5, 24, 48 and 96 h after the beginning of the drug exposure. […] After 1 h of incubation, absorbance was measured at 570 nm using a 96-well microtiter plate reader (MRX microplate reader, Dynatech Laboratories, El Paso, US). […]
The cytotoxicity of BA was evaluated using the CellTiter 96® AQueous One Solution Cell Proliferation Assay (MTS) (Promega GmbH, Mannheim, Germany). […] After 1 h incubation, the plate absorbance was measured at 490 nm using a 96-well microtiter plate reader (MRX microplate reader, Dynatech Laboratories, El Paso, US). […]

[11] = tested on: equine melanoma cells MelJess; parameters: method as in PMID 26772157; conditions: 96 h incubation, read-out: IC50, sulforhodamine B assay; cited from earlier work
[12] = tested on: equine melanoma cells MelDuWi; parameters: method as in PMID 26772157; conditions: 96 h incubation, read-out: IC50, sulforhodamine B assay; cited from earlier work
[13] = 1% BA with 20% medium-chain triglycerides in Basiscreme DAC, mean ± SD

Structure (SMILES): C=C(C)[C@@H]1CC[C@]2(CO)CC[C@]3(C)[C@H](CC[C@@H]4[C@@]5(C)CC[C@H](O)C(C)(C)[C@@H]5CC[C@]43C)[C@@H]12 [betulin]
- side effects of topical treatment (actinic keratoses): did not lead to any side effects

Structure (SMILES): C=C(C)[C@@H]1CC[C@]2(C(=O)O)CC[C@]3(C)[C@H](CC[C@@H]4[C@@]5(C)CC[C@H](O)C(C)(C)[C@@H]5CC[C@]43C)[C@@H]12 [betulinic acid, Betulinic acid]
- IC50 ([1]; 24 h treatment): 34.6 µM
- IC50 ([1]; 48 h treatment): 31.7 µM
- IC50 ([1]; 96 h treatment): 23.6 µM
- IC50 ([2]; PriFi2, 24 h treatment): 24.8 µM
- IC50 ([2]; PriFi2, 48 h treatment): 22.7 µM
- IC50 ([2]; PriFi2, 96 h treatment): 13.3 µM
- IC50 ([3]; PriFi1, 24 h treatment): 20.4 µM
- IC50 ([3]; PriFi1, 48 h treatment): 18 µM
- IC50 ([3]; PriFi1, 96 h treatment): 13.8 µM
- IC50 ([4]; eRGO1, 24 h treatment): 22.8 µM
- IC50 ([4]; eRGO1, 48 h treatment): 20.7 µM
- IC50 ([4]; eRGO1, 96 h treatment): 12.7 µM
- BA amount applied analyzed in the skin [5, 13]: 24 ± 1%
- amount of BA applied detected in the acceptor media [5, 13]: 18 ± 11%
- amount of BA applied detected in the cotton swabs ([5]; 1% BA with 20% medium-chain triglycerides in Basiscreme DAC, remaining donor formulation, mean ± SD): 56 ± 13%
- recovery at 24 h, 1 % ([5]; both sexes, horse, 1% BA with 20% medium-chain triglycerides in Basiscreme DAC, mean ± SD, n = 7, read-out: overall BA recovery): 98 ± 7%
- BA amount found in the blade cleaning tissues ([5]; part of the amount in skin, 1% BA cream, mean ± SD): 9 ± 7%
- concentration of BA in skin ([5]; skin depth 710 μm, 1% BA cream, mean ± SD (SD 31 μmol/L)): 55.8 µM
- concentration of BA in skin ([5]; skin depth 810 μm, 1% BA cream, mean ± SD (SD 38 μmol/L)): 39.6 µM
- IC50 ([6]; 24 h treatment): 49.2 µM
- IC50 ([6]; 48 h treatment): 35.8 µM
- IC50 ([6]; 96 h treatment): 21.6 µM
- IC50 ([7]; PriFi2, 24 h treatment): 30.3 µM
- IC50 ([7]; PriFi2, 48 h treatment): 29.1 µM
- IC50 ([7]; PriFi2, 96 h treatment): 13.8 µM
- IC50 ([8]; PriFi1, 24 h treatment): 58 µM
- IC50 ([8]; PriFi1, 48 h treatment): 52.2 µM
- IC50 ([8]; PriFi1, 96 h treatment): 14.5 µM
- IC50 ([9]; eRGO1, 24 h treatment): 25.9 µM
- IC50 ([9]; eRGO1, 48 h treatment): 21.2 µM
- IC50 ([9]; eRGO1, 96 h treatment): 19.6 µM
- selectivity to tumor cells compared to normal cells [10]: could not be demonstrated
- IC50 [11]: 33.4 µM
- IC50 [12]: 33.1 µM
